Measurements from PubChem BioAssay (NCI).
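96-well plates; 48 h exposure; 5 concentrations. Endpoints by linear interpolation between flanking doses. Not reached: highest tested concentration assigned. Definition used: TGI = concentration required for complete inhibition of growth.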

What was measured:
Experiment in all cases: NCI anticancer screen, dose series, 48 h
NCI-H23 lung = test system: NCI-H23 lung
SK-MEL-2 melanoma = test system: SK-MEL-2 melanoma
OVCAR-8 ovarian = test system: OVCAR-8 ovarian
A549 NSCLC = test system: A549 NSCLC
NCI-H226 lung = test system: NCI-H226 lung
UACC-257 melanoma = test system: UACC-257 melanoma
DU-145 prostate = test system: DU-145 prostate
HS 578T breast = test system: HS 578T breast
A498 renal = test system: A498 renal
PC-3 prostate = test system: PC-3 prostate

Compound | TGI (NCI-H23 lung) | TGI (SK-MEL-2 melanoma) | TGI (OVCAR-8 ovarian) | TGI (A549 NSCLC) | TGI (NCI-H226 lung) | TGI (UACC-257 melanoma) | TGI (DU-145 prostate) | TGI (HS 578T breast) | TGI (A498 renal) | TGI (PC-3 prostate)
C=C(CCC(C)C1CCC2C3=C(C(=O)CC21C)C1(C)CCC(=O)[C@@H](C)C1CC3=O)C(C)C(=O)O (stereo not given in full) | > 100 µM | > 100 µM | > 100 µM | > 100 µM | > 100 µM | > 100 µM | > 100 µM | > 100 µM | > 100 µM | > 100 µM
CCNc1ccc2c(c1)Cc1ccccc1-2 | > 100 µM | > 100 µM | > 100 µM | > 100 µM | > 100 µM | > 100 µM | > 100 µM | > 100 µM | > 100 µM | > 100 µM
COc1nc(N(C)C)nc2c1n(C)c[n+]2C | > 100 µM | > 100 µM | > 100 µM | > 100 µM | > 100 µM | > 100 µM | > 100 µM | > 100 µM | > 100 µM | > 100 µM
Cc1cc(C)c(P2C(=C(O[Si](C(C)C)(C(C)C)C(C)C)C(C)(C)C)C2(c2ccccc2)c2ccccc2)c(C)c1 (stereo not given) | > 100 µM | > 100 µM | > 100 µM | > 100 µM | > 100 µM | > 100 µM | > 100 µM | > 100 µM | > 100 µM | > 100 µM
Nc1nc(-c2ccccc2N=NN2CCCC2)nc2ccccc12 | 8.06 µM | 28.8 µM | 3.77 µM | 10.5 µM | 12.2 µM | 14.9 µM | 16.5 µM | 18 µM | 20.2 µM | 15.4 µM
COc1ccc2c(c1)C(N)=C(c1ccccc1)C2=O | > 100 µM | > 100 µM | > 100 µM | > 100 µM | > 100 µM | > 100 µM | > 100 µM | 56.3 µM | > 100 µM | > 100 µM
CC[N+](C)(CC)CCC(O)(c1ccccc1)c1ccccc1 | > 100 µM | > 100 µM | > 100 µM | > 100 µM | > 100 µM | > 100 µM | > 100 µM | > 100 µM | > 100 µM | > 100 µM
CCOC(=O)c1c(CN2CCNCC2)nc2ccccc2c1-c1ccccc1 | 36 µM | 29.3 µM | 30.6 µM | 33.1 µM | 37.9 µM | 15.7 µM | 31.3 µM | 35.9 µM | 28.3 µM | 27.3 µM
COc1cc2nc(-c3ccc4ccccc4c3)[nH]c(=O)c2cc1OC | > 100 µM | > 100 µM | > 100 µM | > 100 µM | > 100 µM | > 100 µM | > 100 µM | > 100 µM | > 100 µM | > 100 µM
N=c1oc2ccc3ccccc3c2cc1C(N)=O | > 100 µM | 49.4 µM | > 100 µM | > 100 µM | > 100 µM | > 100 µM | > 100 µM | 54.6 µM | > 100 µM | > 100 µM
CCOC(=O)C(NC(=O)N(C1=NCC(C)S1)C1CCCCC1)(OC)C(F)(F)F (stereo not given) | > 100 µM | > 100 µM | > 100 µM | > 100 µM | 47.5 µM | > 100 µM | > 100 µM | > 100 µM | 44.4 µM | > 100 µM
O=[N+]([O-])c1ccc2nc(-c3ccccn3)c(-c3ccccn3)nc2c1 | > 100 µM | > 100 µM | > 100 µM | > 100 µM | > 100 µM | > 100 µM | > 100 µM | > 100 µM | > 100 µM | > 100 µM
O=C1C=CC(=O)C(CNc2ccc(C(=O)OC34CC5CC(CC(C5)C3)C4)cc2)=C1 | 25.4 µM | 44.3 µM | 56 µM | 56.9 µM | 4.47 µM | 18.2 µM | 47.6 µM | 10.9 µM | 28 µM | 22 µM
CCc1c(Cc2cccc3ccccc23)n2c(nc1=O)SCC2OCCO (stereo not given) | > 100 µM | > 100 µM | > 100 µM | > 100 µM | > 100 µM | > 100 µM | > 100 µM | > 100 µM | > 100 µM | > 100 µM
c1ccc(CCNCc2ccco2)nc1 | > 100 µM | > 100 µM | > 100 µM | > 100 µM | > 100 µM | > 100 µM | > 100 µM | > 100 µM | > 100 µM | > 100 µM
NC(=S)N/N=C\c1ccc(OCc2cccc(COc3ccc(/C=N/NC(N)=S)cc3)n2)cc1 | > 100 µM | 38.1 µM | > 100 µM | > 100 µM | > 100 µM | > 100 µM | > 100 µM | > 100 µM | > 100 µM | > 100 µM
CC(=O)O[C@@H]1C[C@@]23C[C@@]24CC[C@H](OC2OCC(O)C(O)C2O)C(C)(C)[C@@H]4CC=C3[C@]2(C)C[C@@H]3OC4(C[C@@H](C)[C@@H]3[C@@]12C)OC(O)[C@@]1(C)O[C@@H]41 (stereo not given in full) | > 100 µM | 40.7 µM | > 100 µM | > 100 µM | > 100 µM | 67 µM | > 100 µM | > 100 µM | > 100 µM | 61.1 µM
